Columns and labels:
P. noctiluca [1] = assay: Tentacle Skin Blood Agarose Assay (TSBAA): venom load as hemolytic area after natural stimulation of nematocyst discharge; type: cell-based; details: for discharge of nematocysts: summary statement on the results of Examples 1 and 2
Protocol: (§1) Jellyfish cultures: Jellyfish were cultivated by laboratory conditions in Loro Parque aquarium (Tenerife, Spain). The P. noctiluca adult individuals were breeding in kreisels tanks with a continuous water renewal, 33-35‰ salinity, 22°C temperature and light cycle of 12h light/12h dark. Individuals were daily fed with Artemia sp. nauplii, small pieces of the jellyfish Aurelia sp., eggs of Merluccius and Parapenaeus longirostris.
Briefly, an agarose gel preparation incorporating sheep red blood cells (SRBCs) (Thermo Fisher Scientific) was used covered by a thin tissue of pig intestine to simulate the effect of the human skin barrier.
A solution of 4% low melting point agarose (INVITROGEN ™ LMP Agarose) in phosphate buffered saline (PBS) (SIGMA) was prepared and cooled to room temperature for a few minutes. The SRBCs were centrifuged and resuspended in PBS until a final concentration of 2% was obtained. Equal volumes of both preparations were mixed and poured onto a glass surface with a mold (18x7.5 cm) and allowed to cool to room temperature. Once the agarose with SRBCs was set, rectangles were cut and placed on slides and kept at 4 °C in a humidification chamber (maximum 72 hours until use).
Pig small intestine tissue was washed in a 50 mM saline solution and then cut in rectangular sections. The sections were sterilized in a disinfecting solution consisting of 87% 110 mM saline, 10% ethanol (PANREAC, ethanol 96%) and 3% hydrogen peroxide for 3 hours, after which they were left in physiological serum overnight. The next day, the sections were stretched on a glass surface and allowed to dry for a few minutes in the open air. The pretreated sections of the pig small intestine were placed on the SRBC agarose rectangles.
Cutting tentacles of the same size is a complicated process due to the contraction and expansion of the tentacles after their manipulation. In order to control the sting area, we design plastic molds obtained through a 3D printer.
Tentacle pieces of approximately 3 cm long were incubated on reductor or inhibitory solutions (Method 3) for 5 minutes. Consecutively, the agarose rectangles were stung by a sting diameter of 57,35 mm^2 for 1 minute. A weight of 0,66 g was applied to ensure the contact between the tentacle and the skin. After the sting process, the plastic molds and the intestine sections were removed and the SRBC's agarose rectangles were stored in the humidification chamber at room temperature. After a period of 22 hours, images of the hemolytic areas were obtained with a camera. Hemolytic areas were calculated using the Fiji version of ImageJ software (J. Schindelin et al., Fiji: an open-source platform for biological-image analysis. Nature methods, 2012, vol. 9, pp. 676-682). Table 2. Inhibitory efficacy on the venom load to P. noctiluca.

P. noctiluca [2] = assay: Tentacle Solution Assay (TSA): inhibition of chemically stimulated nematocyst discharge; type: cell-based; parameters: key to Inhibitory effect (TSA) using 5% acetic acid as chemical stimulator Discharge: 0: no discharge was observed; +: low discharge of nematocysts; ++: medium discharge of nematocysts; +++: high discharge of nematocysts; key to Inhibitory effect (TSA) using 5% acetic acid as chemical stimulator Effect: Neutral effect solution: nematocysts were not activated after the incubation in the first solution but were activated by the subsequent chemical stimulation with 5% acetic acid solution; Reductor effect solution: nematocysts were not activated after the incubation in the first solution, but some isolated nematocysts discharge was observed activated by the subsequent chemical stimulation with 5% acetic acid solution; Inhibitory effect solution: nematocysts were not activated after the incubation in the first solution or by the subsequent chemical stimulation with 5% acetic acid solution; details: tentacle pieces incubated 5 minutes in 3 ml solution, then 15 µl of 5% acetic acid
Protocol: as §1
Tentacles pieces of approximately 3 cm long were transferred to slides ([…]). The samples were observed under the light microscope in order to ensure their integrity. Subsequently, tentacles were incubated on microwells with 3 ml of each solution for 5 minutes. In order to know the inhibitory effect, the neutral solutions were chemically stimulated by means of 15 µl of 5% acetic acid solution in distilled water (an activator solution per se).
The nematocysts response was classified qualitatively in four categories in accordance with Pyo et al. (2016): • 1. 0: no discharge was observed; • 2. +: low discharge of nematocysts; • 3. ++: medium discharge of nematocysts; • 4. +++: high discharge of nematocysts.
The effect was classified in one of three categories: • 1. Neutral effect solution: nematocysts were not activated after the incubation in the first solution but were activated by the subsequent chemical stimulation with 5% acetic acid solution; • 2. Reductor effect solution: nematocysts were not activated after the incubation in the first solution, but some isolated nematocysts discharge was observed activated by the subsequent chemical stimulation with 5% acetic acid solution; • 3. Inhibitory effect solution: nematocysts were not activated after the incubation in the first solution or by the subsequent chemical stimulation with 5% acetic acid solution. Table 1. Inhibitory efficacy on the nematocyst discharge in P. noctiluca.

SMILES	discharge of nematocysts (P. noctiluca [1])	Inhibitory effect (TSA) using 5% acetic acid as chemical stimulator Discharge (P. noctiluca [2])	Inhibitory effect (TSA) using 5% acetic acid as chemical stimulator Effect (P. noctiluca [2])	Venom load - Hemolytic area (%) (P. noctiluca [1]; tentacles incubated 5 minutes in solution, sting 1 minute through pig intestine on sheep red blood cell agarose, read after 22 hours)	% Inhibitory (P. noctiluca [1]; {}) [%]
CC(C)(C)C1CCC(O)CC1 (stereo not drawn) [4-tert-butyl cyclohexanol]	significantly reduces	–	–	–	–
CC(=O)O [5% Acetic acid solution, acetic acid]	–	+++	Activator	–	–
CC(O)CCO (stereo not drawn) [100% Butylene glycol, butylene glycol]	–	+	Reductor	26.54 ± 19.66	56.33
CCO [100% Ethanol, ethanol]	–	++	Neutral/Reductor	–	–
CC(O)CO (stereo not drawn) [100% Propylene glycol, propylene glycol]	–	+	Reductor	–	–
O=C(CO)c1ccccc1 [HAP, hydroxy acetophenone]	significantly reduces	–	–	–	–

— EP4311544A1, “COMPOUNDS USEFUL AGAINST JELLYFISH STINGS” (Isdin, S. A., priority 2022, dated 2024)
